{
  "source": "patent US20260097126A1",
  "about": "“PHARMACEUTICAL FORMULATIONS AND METHODS FOR THE TREATMENT OF METABOLIC AND LIVER DISORDERS” (priority 2022, published 2026)",
  "key": {"[1]": {"test_system": "mice fed a Gubra amylin NASH (GAN) diet", "assay": "Biological effects in GAN diet-induced NASH mice", "assay_type": "in vivo", "details": "after two weeks; for Gal-3 Relative / Gal-3 Total: liver Galectin-3, histological quantitative assessment; for α-SMA Relative / α-SMA Total: liver alpha-smooth muscle actin, histological quantitative assessment; for TG Relative / TG Total: liver triglycerides", "experimental": "NASH was induced in mice by feeding mice a Gubra amylin NASH (GAN) diet as described in Boland et al. World J Gastroenterol. 2019, 25(33): 4904-4920. One week prior to administration of a first dose of compounds, the mice were weighed and randomized, and their food intake was measured. Mice were randomly assigned to dosing groups, with twelve mice per group. […] Compound dose titration (nmol/kg): 0.6 (day 0), 1.2 (day 1), 2.4 (day 2), 4.8 (day 3), 4.8 (day 4), 12 (day 5), 30.0 (from day 6).\nAfter two weeks, animals were sacrificed. Plasma enzymes (P-ALT (alanine aminotransferase) and P-AST (aspartate aminotransferase)), total plasma triglycerides, and total plasma cholesterol were measured, and terminal necropsy of each liver was carried out, determining relative liver weight as a percentage of body weight, assaying total liver biochemistry including total liver triglycerides, plasma insulin and total liver cholesterol, as well as histological evaluation of Galectin-3, and alpha-smooth muscle actin."}, "[2]": {"molecular_target": "T1, GIP receptor (Homo sapiens, UniProt P48546)", "T1 sequence (P48546 22-466)": "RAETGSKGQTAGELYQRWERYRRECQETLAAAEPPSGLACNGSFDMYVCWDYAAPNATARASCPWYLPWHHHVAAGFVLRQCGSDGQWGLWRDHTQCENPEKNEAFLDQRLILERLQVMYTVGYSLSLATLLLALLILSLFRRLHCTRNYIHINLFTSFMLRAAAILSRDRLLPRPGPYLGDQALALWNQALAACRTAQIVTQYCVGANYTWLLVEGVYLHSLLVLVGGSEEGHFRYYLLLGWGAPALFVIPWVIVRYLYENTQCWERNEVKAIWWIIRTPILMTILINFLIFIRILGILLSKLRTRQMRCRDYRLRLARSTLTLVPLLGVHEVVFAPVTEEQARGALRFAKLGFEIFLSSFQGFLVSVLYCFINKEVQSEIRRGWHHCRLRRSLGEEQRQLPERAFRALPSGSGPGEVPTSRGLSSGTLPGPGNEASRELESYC", "assay": "TagLite binding assay, GIP receptor", "details": "for IC50: read-out: GIP receptor IC 50"}, "[3]": {"molecular_target": "T2, GLP-1 receptor (Homo sapiens, UniProt P43220)", "T2 sequence (P43220 24-463)": "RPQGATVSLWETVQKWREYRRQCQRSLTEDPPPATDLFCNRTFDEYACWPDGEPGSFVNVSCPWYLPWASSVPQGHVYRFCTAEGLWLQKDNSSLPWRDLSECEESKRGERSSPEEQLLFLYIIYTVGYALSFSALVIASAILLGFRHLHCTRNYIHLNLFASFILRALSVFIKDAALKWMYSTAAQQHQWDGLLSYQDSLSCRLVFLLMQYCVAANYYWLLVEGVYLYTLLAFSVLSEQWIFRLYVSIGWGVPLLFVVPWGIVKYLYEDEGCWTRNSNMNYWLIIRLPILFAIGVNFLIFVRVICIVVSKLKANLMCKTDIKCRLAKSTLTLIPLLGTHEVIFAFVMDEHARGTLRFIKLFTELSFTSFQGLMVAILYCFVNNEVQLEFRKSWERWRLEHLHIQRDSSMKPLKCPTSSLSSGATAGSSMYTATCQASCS", "assay": "TagLite binding assay, GLP-1 receptor", "details": "for IC50: read-out: GLP-1 receptor IC 50"}, "[4]": {"molecular_target": "T2, GLP-1 receptor", "assay": "HSA modulated binding assay, GLP-1 receptor"}, "[5]": {"molecular_target": "T1, GIP receptor", "assay": "HSA modulated binding assay, GIP receptor"}, "[6]": {"assay": "Pharmacokinetic study of Compounds 4, 14, 15, 17 in monkeys", "details": "cynomolgus monkey, in vivo, sc, 0.2 mg/kg", "experimental": "The formulations were administered to cynomolgus monkeys at a dose of 0.2 mg/kg. Plasma concentration versus time data was collected and pharmacokinetic values determined."}, "[7]": {"assay": "Stability study of Compound 4 formulations", "assay_type": "physicochemical"}, "[8]": {"details": "binding with 2% HSA to binding with 0% HSA"}, "[9]": {"details": "GMP formulation, 2.5 mg/ml Compound 4, 0.94% propylene glycol, 0.36% phenol, 0.074% dibasic sodium phosphate, 0.005% polysorbate 80, initial"}, "[10]": {"details": "same formulation stored for one month at 25° C./60% R.H."}},
  "data": [
    {"compound": "CC[C@H](C)[C@H](NC(=O)[C@H](CC(C)C)NC(=O)[C@H](Cc1c[nH]c2ccccc12)NC(=O)[C@H](CCC(N)=O)NC(=O)[C@@H](NC(=O)[C@H](Cc1ccccc1)NC(=O)[C@H](C)NC(=O)[C@H](CCCCNC(=O)COCCOCCNC(=O)COCCOCCNC(=O)CC[C@H](NC(=O)CCCCCCCCCCCCCCCCCCC(=O)O)P(=O)(O)O)NC(=O)[C@H](CCC(N)=O)NC(=O)[C@H](C)NC(=O)[C@@H](NC(=O)[C@H](CCCCN)NC(=O)[C@H](CC(=O)O)NC(=O)[C@H](CC(C)C)NC(=O)C(C)(C)NC(=O)[C@@H](NC(=O)[C@H](CO)NC(=O)[C@H](Cc1ccc(O)cc1)NC(=O)[C@H](CC(=O)O)NC(=O)[C@H](CO)NC(=O)[C@@H](NC(=O)[C@H](Cc1ccccc1)NC(=O)[C@@H](NC(=O)CNC(=O)[C@H](CCC(=O)O)NC(=O)C(C)(C)NC(=O)[C@@H](N)Cc1ccc(O)cc1)[C@@H](C)O)[C@@H](C)O)[C@@H](C)CC)[C@@H](C)CC)C(C)C)C(=O)N[C@@H](C)C(=O)NCC(=O)NCC(=O)N1CCC[C@H]1C(=O)N[C@@H](CO)C(=O)N[C@@H](CO)C(=O)NCC(=O)N[C@@H](C)C(=O)N1CCC[C@H]1C(=O)N1CCC[C@H]1C(=O)N1CCC[C@H]1C(=O)N[C@@H](CO)C(N)=O", "note": "[Compound 8]", "values": [
      {"measurement": "liver Galectin-3 compared to tirzepatide or vehicle (in words)", "setting": "[1]", "result": "lower relative and total liver Galectin-3 as compared to administration of tirzepatide or vehicle alone"},
      {"measurement": "liver alpha-smooth muscle actin compared to tirzepatide (in words)", "setting": "[1]", "result": "lower relative and total liver alpha-smooth muscle actin as compared to administration of tirzepatide"},
      {"measurement": "liver triglycerides compared to tirzepatide or vehicle (in words)", "setting": "[1]", "result": "lower relative and total liver triglycerides as compared to administration of tirzepatide or vehicle alone"},
      {"measurement": "Gal-3 Relative", "setting": "[1]", "result": "5.8 ± 0.6", "unit": "percent fractional area"},
      {"measurement": "Gal-3 Total", "setting": "[1]", "result": "117 ± 12", "unit": "mg"},
      {"measurement": "α-SMA Relative", "setting": "[1]", "result": "4.3 ± 0.5", "unit": "percent fractional area"},
      {"measurement": "α-SMA Total", "setting": "[1]", "result": "83 ± 8", "unit": "mg"},
      {"measurement": "TG Relative", "setting": "[1]", "result": "40 ± 3", "unit": "mg per/g liver"},
      {"measurement": "TG Total", "setting": "[1]", "result": "75 ± 7", "unit": "mg per/liver"},
      {"measurement": "IC50", "setting": "[2]", "result": 223, "unit": "nM"},
      {"measurement": "IC50", "setting": "[3]", "result": 288, "unit": "nM"}
    ]},
    {"compound": "tirzepatide [reference compound]", "values": [
      {"measurement": "Gal-3 Total", "setting": "[1]", "result": "138 ± 17", "unit": "mg"},
      {"measurement": "α-SMA Total", "setting": "[1]", "result": "108 ± 22", "unit": "mg"},
      {"measurement": "TG Total", "setting": "[1]", "result": "80 ± 11", "unit": "mg per/liver"},
      {"measurement": "GLP-1 receptor % Binding avg at CMax, 0% HSA", "setting": "[4]; 0% human serum albumin", "result": "−0.14", "unit": "%"},
      {"measurement": "GLP-1 receptor % Binding avg at CMax, 2% HSA", "setting": "[4]; 2% human serum albumin", "result": 33.01, "unit": "%"},
      {"measurement": "binding affinity for albumin (in words)", "setting": "[4]; inferred from the HSA ratios at GLP-1 and GIP receptors", "result": "greater than that of Compound 4 or of Compound 12"},
      {"measurement": "GIP receptor % Binding avg at CMax, 0% HSA", "setting": "[5]; 0% human serum albumin", "result": "−3.05", "unit": "%"},
      {"measurement": "GIP receptor % Binding avg at CMax, 2% HSA", "setting": "[5]; 2% human serum albumin", "result": 10.07, "unit": "%"},
      {"measurement": "GIP receptor % Binding avg at CMax", "setting": "[2]", "result": "−1.21", "unit": "%"},
      {"measurement": "GLP-1 receptor % Binding avg at CMax", "setting": "[3]", "result": 0.20, "unit": "%"}
    ]},
    {"compound": "CC[C@H](C)[C@H](NC(=O)[C@H](CC(C)C)NC(=O)[C@H](Cc1c[nH]c2ccccc12)NC(=O)[C@H](CCC(N)=O)NC(=O)[C@@H](NC(=O)[C@H](Cc1ccccc1)NC(=O)[C@H](C)NC(=O)[C@H](CCCCNC(=O)COCCOCCNC(=O)COCCOCCNC(=O)CC[C@H](NC(=O)CCCCCCCCCCCCCCCCCCP(=O)(O)O)C(=O)O)NC(=O)[C@H](CCC(N)=O)NC(=O)[C@H](C)NC(=O)[C@@H](NC(=O)[C@H](CCCCN)NC(=O)[C@H](CC(=O)O)NC(=O)[C@H](CC(C)C)NC(=O)C(C)(C)NC(=O)[C@@H](NC(=O)[C@H](CO)NC(=O)[C@H](Cc1ccc(O)cc1)NC(=O)[C@H](CC(=O)O)NC(=O)[C@H](CO)NC(=O)[C@@H](NC(=O)[C@H](Cc1ccccc1)NC(=O)[C@@H](NC(=O)CNC(=O)[C@H](CCC(=O)O)NC(=O)C(C)(C)NC(=O)[C@@H](N)Cc1ccc(O)cc1)[C@@H](C)O)[C@@H](C)O)[C@@H](C)CC)[C@@H](C)CC)C(C)C)C(=O)N[C@@H](C)C(=O)NCC(=O)NCC(=O)N1CCC[C@H]1C(=O)N[C@@H](CO)C(=O)N[C@@H](CO)C(=O)NCC(=O)N[C@@H](C)C(=O)N1CCC[C@H]1C(=O)N1CCC[C@H]1C(=O)N1CCC[C@H]1C(=O)N[C@@H](CO)C(N)=O", "note": "[Compound 4]", "values": [
      {"measurement": "liver Galectin-3 compared to tirzepatide or vehicle (in words)", "setting": "[1]", "result": "lower relative and total liver Galectin-3 as compared to administration of tirzepatide or vehicle alone"},
      {"measurement": "liver alpha-smooth muscle actin compared to tirzepatide (in words)", "setting": "[1]", "result": "lower relative and total liver alpha-smooth muscle actin as compared to administration of tirzepatide"},
      {"measurement": "liver triglycerides compared to tirzepatide or vehicle (in words)", "setting": "[1]", "result": "lower relative and total liver triglycerides as compared to administration of tirzepatide or vehicle alone"},
      {"measurement": "Gal-3 Relative", "setting": "[1]", "result": "6.3 ± 0.3", "unit": "percent fractional area"},
      {"measurement": "Gal-3 Total", "setting": "[1]", "result": "137 ± 15", "unit": "mg"},
      {"measurement": "α-SMA Relative", "setting": "[1]", "result": "4.8 ± 0.6", "unit": "percent fractional area"},
      {"measurement": "α-SMA Total", "setting": "[1]", "result": "102 ± 10", "unit": "mg"},
      {"measurement": "TG Relative", "setting": "[1]", "result": "37 ± 3", "unit": "mg per/g liver"},
      {"measurement": "TG Total", "setting": "[1]", "result": "70 ± 5", "unit": "mg per/liver"},
      {"measurement": "IC50", "setting": "[4]; 0% human serum albumin, read-out: GLP-1 receptor IC 50, 0% HSA", "result": 154, "unit": "nM"},
      {"measurement": "GLP-1 receptor Ratio of HSA/No HSA", "setting": "[4]; [8]", "result": 6.42},
      {"measurement": "IC50", "setting": "[4]; read-out: GLP-1 receptor IC 50, 2% HSA, 2% human serum albumin", "result": 988, "unit": "nM"},
      {"measurement": "IC50", "setting": "[5]; 0% human serum albumin, read-out: GIP receptor IC 50, 0% HSA", "result": 264, "unit": "nM"},
      {"measurement": "GIP receptor Ratio of HSA/No HSA", "setting": "[5]; [8]", "result": 1.25},
      {"measurement": "IC50", "setting": "[5]; read-out: GIP receptor IC 50, 2% HSA, 2% human serum albumin", "result": 331, "unit": "nM"},
      {"measurement": "AUC(0-inf)", "setting": "[6]", "result": 321, "unit": "µg·h/mL"},
      {"measurement": "AUC(0-t)", "setting": "[6]", "result": 309, "unit": "µg·h/mL"},
      {"measurement": "CL/F", "setting": "[6]", "result": 15.2, "unit": "mL/day/kg"},
      {"measurement": "Cmax", "setting": "[6]", "result": 1890, "unit": "ng/mL"},
      {"measurement": "Tmax", "setting": "[6]", "result": 20, "unit": "h"},
      {"measurement": "Vd/F", "setting": "[6]", "result": 0.095, "unit": "L/kg"},
      {"measurement": "half-life", "setting": "[6]", "result": 105, "unit": "h"},
      {"measurement": "Compound 4 assay, before storage", "setting": "[7]; [9]", "result": 103, "unit": "%"},
      {"measurement": "total impurities, before storage", "setting": "[7]; [9]", "result": 0.57, "unit": "%"},
      {"measurement": "Compound 4 assay, after storage", "setting": "[7]; [10]", "result": 102.4, "unit": "%"},
      {"measurement": "total impurities, after storage", "setting": "[7]; [10]", "result": 0.76, "unit": "%"},
      {"measurement": "IC50", "setting": "[2]", "result": 153, "unit": "nM"},
      {"measurement": "IC50", "setting": "[3]", "result": 105, "unit": "nM"}
    ]}
  ]
}
